The values below come from patent US20250011368A1, “DLL3 TARGETING PEPTIDES AND CONSTRUCTS THEREOF” (MARIANA ONCOLOGY INC., priority 2023, published 2025).

The target of this experiment is T1, human DLL3 (Homo sapiens, UniProt Q9NYJ7).
T1 sequence (Q9NYJ7 27-618): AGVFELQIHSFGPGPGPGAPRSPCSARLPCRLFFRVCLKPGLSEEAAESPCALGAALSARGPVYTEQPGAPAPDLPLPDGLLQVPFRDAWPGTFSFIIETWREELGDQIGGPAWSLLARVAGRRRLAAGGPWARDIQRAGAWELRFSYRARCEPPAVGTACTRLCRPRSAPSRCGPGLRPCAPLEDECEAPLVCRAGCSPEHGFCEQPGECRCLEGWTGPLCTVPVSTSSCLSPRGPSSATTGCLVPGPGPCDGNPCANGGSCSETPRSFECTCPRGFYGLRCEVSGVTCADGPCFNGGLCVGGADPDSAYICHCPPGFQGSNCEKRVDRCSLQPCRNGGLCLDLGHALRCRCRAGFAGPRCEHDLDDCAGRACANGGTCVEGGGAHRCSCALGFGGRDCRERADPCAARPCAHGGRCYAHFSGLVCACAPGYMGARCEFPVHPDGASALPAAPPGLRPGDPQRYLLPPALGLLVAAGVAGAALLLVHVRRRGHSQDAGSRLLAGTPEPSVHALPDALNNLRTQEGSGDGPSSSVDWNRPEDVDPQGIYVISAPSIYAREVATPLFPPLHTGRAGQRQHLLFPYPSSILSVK
In words: Affinity determination by Surface Plasmon Resonance (SPR). It counts as binding. To be noted: 25° C., biotinylated human DLL3 immobilized on streptavidin sensor chip, 1:1 binding model; read-out: SPR KD. The method in brief:
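Biotinylated human DLL3 was captured on a streptavidin chip with a reference surface. Compounds at several concentrations were injected at 100 μL/minute in phosphate buffer (137 mM NaCl, 2.7 mM KCl, 0.05% P20, 2% DMSO). Affinity and kinetics came from 1:1 model fits of the sensorgrams.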

Bridge positions count the residues as written; N and C are the ends. Square brackets hold non-standard residues; d marks the D form. Peptide text beside a SMILES is read from it. * marks the point of attachment. DOTA = O=C(O)CN1CCN(CC(=O)O)CCN(CC(=O)*)CCN(CC(=O)O)CC1; Phe(4-CF3) = N[C@@H](Cc1ccc(C(F)(F)F)cc1)C(=O)O; Trp(5-F) = N[C@@H](Cc1c[nH]c2ccc(F)cc12)C(=O)O; Phe(2-CF3) = N[C@@H](Cc1ccccc1C(F)(F)F)C(=O)O; Trp(7-aza) = N[C@@H](Cc1c[nH]c2ncccc12)C(=O)O; Pro(trans-4-F) = O=C(O)[C@@H]1C[C@@H](F)CN1; Phe(4-F) = N[C@@H](Cc1ccc(F)cc1)C(=O)O; Gly(4-THP) = N[C@H](C(=O)O)C1CCOCC1; Nva(3-Et) = CCC(CC)[C@H](N)C(=O)O; Cha = N[C@@H](CC1CCCCC1)C(=O)O; Cba = N[C@@H](CC1CCC1)C(=O)O; Chg = N[C@H](C(=O)O)C1CCCCC1; Tle = CC(C)(C)[C@H](N)C(=O)O; Nle = CCCC[C@H](N)C(=O)O; Aze = O=C(O)[C@@H]1CCN1

In general, Kd refers to the equilibrium constant for the complex coming apart. For `CCCC[C@H](NC(=O)[C@@H](NC(=O)[C@H](Cc1c[nH]c2ccc(F)cc12)NC(C)=O)[C@@H](C)O)C(=O)N[C@H]1CSSC[C@@H](C(=O)N[C@@H](Cc2c[nH]c3ncccc23)C(=O)N2C[C@H](F)C[C@H]2C(=O)N[C@H](CCCCNC(=O)CN2CCN(CC(=O)O)CCN(CC(=O)O)CCN(CC(=O)O)CC2)C(N)=O)NC(=O)[C@H](CC(=O)O)NC(=O)[C@H](Cc2cnc[nH]2)NC(=O)[C@H](Cc2ccc(F)cc2)NC(=O)[C@H](CC(N)=O)NC(=O)[C@H](CC(N)=O)NC1=O` [compound 132, Ac-(5Fluoro-W)-T-(Nle)-C(3)-N-N-(4Fluoro-F)-H-D-C(3)-(7Aza-W)-(trans4Fluoro-P)-[D-Lys(DOTA)]-NH2] (Ac-[Trp(5-F)]T[Nle]CNN[Phe(4-F)]HDC[Trp(7-aza)][Pro(trans-4-F)][dK](DOTA)-NH2; disulfide 4-10), the Kd is 1 to 10 nM.

As for `CC(=O)N[C@@H](Cc1c[nH]c2ccc(F)cc12)C(=O)N[C@H](C(=O)N[C@@H](CC1CCCCC1)C(=O)N[C@H]1CSSC[C@@H](C(=O)N[C@@H](Cc2c[nH]c3ncccc23)C(=O)N2C[C@H](F)C[C@H]2C(=O)N[C@H](CCCCNC(=O)CN2CCN(CC(=O)O)CCN(CC(=O)O)CCN(CC(=O)O)CC2)C(N)=O)NC(=O)[C@H](CC(=O)O)NC(=O)[C@H](Cc2cnc[nH]2)NC(=O)[C@H](Cc2ccc(F)cc2)NC(=O)[C@H](CC(N)=O)NC(=O)[C@H](CC(N)=O)NC1=O)[C@@H](C)O` [compound 133, Ac-(5Fluoro-W)-T-(CHA)-C(3)-N-N-(4Fluoro-F)-H-D-C(3)-(7Aza-W)-(trans4Fluoro-P)-[D-Lys(DOTA)]-NH2] (Ac-[Trp(5-F)]T[Cha]CNN[Phe(4-F)]HDC[Trp(7-aza)][Pro(trans-4-F)][dK](DOTA)-NH2; disulfide 4-10), the Kd was in the range of 1 to 10 nM.

For the compound `CC(=O)N[C@@H](Cc1c[nH]c2ccc(F)cc12)C(=O)N[C@H](C(=O)N[C@@H](CC1CCC1)C(=O)N[C@H]1CSSC[C@@H](C(=O)N[C@@H](Cc2c[nH]c3ncccc23)C(=O)N2C[C@H](F)C[C@H]2C(=O)N[C@H](CCCCNC(=O)CN2CCN(CC(=O)O)CCN(CC(=O)O)CCN(CC(=O)O)CC2)C(N)=O)NC(=O)[C@H](CC(=O)O)NC(=O)[C@H](Cc2cnc[nH]2)NC(=O)[C@H](Cc2ccc(F)cc2)NC(=O)[C@H](CC(N)=O)NC(=O)[C@H](CC(N)=O)NC1=O)[C@@H](C)O` [compound 134, Ac-(5Fluoro-W)-T-(CBA)-C(3)-N-N-(4Fluoro-F)-H-D-C(3)-(7Aza-W)-(trans4Fluoro-P)-[D-Lys(DOTA)]-NH2] (Ac-[Trp(5-F)]T[Cba]CNN[Phe(4-F)]HDC[Trp(7-aza)][Pro(trans-4-F)][dK](DOTA)-NH2; disulfide 4-10), the Kd fell in the range of 1 to 10 nM.

With `CC(=O)N[C@@H](Cc1c[nH]c2ccc(F)cc12)C(=O)N[C@H](C(=O)N[C@H](C(=O)N[C@H]1CSSC[C@@H](C(=O)N[C@@H](Cc2c[nH]c3ncccc23)C(=O)N2C[C@H](F)C[C@H]2C(=O)N[C@H](CCCCNC(=O)CN2CCN(CC(=O)O)CCN(CC(=O)O)CCN(CC(=O)O)CC2)C(N)=O)NC(=O)[C@H](CC(=O)O)NC(=O)[C@H](Cc2cnc[nH]2)NC(=O)[C@H](Cc2ccc(F)cc2)NC(=O)[C@H](CC(N)=O)NC(=O)[C@H](CC(N)=O)NC1=O)C1CCCCC1)[C@@H](C)O` [compound 135, Ac-(5Fluoro-W)-T-(Chg)-C(3)-N-N-(4Fluoro-F)-H-D-C(3)-(7Aza-W)-(trans4Fluoro-P)-[D-Lys(DOTA)]-NH2] (Ac-[Trp(5-F)]T[Chg]CNN[Phe(4-F)]HDC[Trp(7-aza)][Pro(trans-4-F)][dK](DOTA)-NH2; disulfide 4-10), the Kd was 1 to 10 nM.

`CC(=O)N[C@@H](Cc1c[nH]c2ccc(F)cc12)C(=O)N[C@H](C(=O)N[C@@H](Cc1ccccc1C(F)(F)F)C(=O)N[C@H]1CSSC[C@@H](C(=O)N[C@@H](Cc2c[nH]c3ncccc23)C(=O)N2C[C@H](F)C[C@H]2C(=O)N[C@H](CCCCNC(=O)CN2CCN(CC(=O)O)CCN(CC(=O)O)CCN(CC(=O)O)CC2)C(N)=O)NC(=O)[C@H](CC(=O)O)NC(=O)[C@H](Cc2cnc[nH]2)NC(=O)[C@H](Cc2ccc(F)cc2)NC(=O)[C@H](CC(N)=O)NC(=O)[C@H](CC(N)=O)NC1=O)[C@@H](C)O` [compound 136, Ac-(5Fluoro-W)-T-(2CF3-F)-C(3)-N-N-(4Fluoro-F)-H-D-C(3)-(7Aza-W)-(trans4Fluoro-P)-[D-Lys(DOTA)]-NH2] (Ac-[Trp(5-F)]T[Phe(2-CF3)]CNN[Phe(4-F)]HDC[Trp(7-aza)][Pro(trans-4-F)][dK](DOTA)-NH2; disulfide 4-10): the Kd lay in the range of 1 to 10 nM.

As for `CC(=O)N[C@@H](Cc1c[nH]c2ccc(F)cc12)C(=O)N[C@H](C(=O)N[C@H](C(=O)N[C@H]1CSSC[C@@H](C(=O)N[C@@H](Cc2c[nH]c3ncccc23)C(=O)N2CC[C@H]2C(=O)N[C@H](CCCCNC(=O)CN2CCN(CC(=O)O)CCN(CC(=O)O)CCN(CC(=O)O)CC2)C(N)=O)NC(=O)[C@H](CC(=O)O)NC(=O)[C@H](Cc2cnc[nH]2)NC(=O)[C@H](Cc2ccc(C(F)(F)F)cc2)NC(=O)[C@H](CC(N)=O)NC(=O)[C@H](CC(N)=O)NC1=O)C(C)(C)C)[C@@H](C)O` [compound 137, Ac-(5Fluoro-W)-T-(Tbg)-C(3)-N-N-(4CF3-F)-H-D-C(3)-(7Aza-W)-(Aze)-[D-Lys(DOTA)]-NH2] (Ac-[Trp(5-F)]T[Tle]CNN[Phe(4-CF3)]HDC[Trp(7-aza)][Aze][dK](DOTA)-NH2; disulfide 4-10), the Kd was in the range of 1 to 10 nM.

Turning to `CCC(CC)[C@H](NC(=O)[C@@H](NC(=O)[C@H](Cc1c[nH]c2ccc(F)cc12)NC(C)=O)[C@@H](C)O)C(=O)N[C@H]1CSSC[C@@H](C(=O)N[C@@H](Cc2c[nH]c3ncccc23)C(=O)N2CC[C@H]2C(=O)N[C@H](CCCCNC(=O)CN2CCN(CC(=O)O)CCN(CC(=O)O)CCN(CC(=O)O)CC2)C(N)=O)NC(=O)[C@H](CC(=O)O)NC(=O)[C@H](Cc2c[nH]cn2)NC(=O)[C@H](Cc2ccc(C(F)(F)F)cc2)NC(=O)[C@H](CC(N)=O)NC(=O)[C@H](CC(N)=O)NC1=O` [compound 138, Ac-(5Fluoro-W)-T-(Env)-C(3)-N-N-(4CF3-F)-H-D-C(3)-(7Aza-W)-(Aze)-[D-Lys(DOTA)]-NH2] (Ac-[Trp(5-F)]T[Nva(3-Et)]CNN[Phe(4-CF3)]HDC[Trp(7-aza)][Aze][dK](DOTA)-NH2; disulfide 4-10), the Kd was 10 to 100 nM.

As for `CC(=O)N[C@@H](Cc1c[nH]c2ccc(F)cc12)C(=O)N[C@H](C(=O)N[C@H](C(=O)N[C@H]1CSSC[C@@H](C(=O)N[C@@H](Cc2c[nH]c3ncccc23)C(=O)N2CC[C@H]2C(=O)N[C@H](CCCCNC(=O)CN2CCN(CC(=O)O)CCN(CC(=O)O)CCN(CC(=O)O)CC2)C(N)=O)NC(=O)[C@H](CC(=O)O)NC(=O)[C@H](Cc2cnc[nH]2)NC(=O)[C@H](Cc2ccc(C(F)(F)F)cc2)NC(=O)[C@H](CC(N)=O)NC(=O)[C@H](CC(N)=O)NC1=O)C1CCOCC1)[C@@H](C)O` [compound 139, Ac-(5Fluoro-W)-T-(THPG)-C(3)-N-N-(4CF3-F)-H-D-C(3)-(7Aza-W)-(Aze)-[D-Lys(DOTA)]-NH2] (Ac-[Trp(5-F)]T[Gly(4-THP)]CNN[Phe(4-CF3)]HDC[Trp(7-aza)][Aze][dK](DOTA)-NH2; disulfide 4-10), the Kd lay in the range of 1 to 10 nM.
